Reference: patent US20230017045A1, “PYRIDINE AND PYRIMIDINE CARBOXYLATE HERBICIDES AND METHODS OF USE THEREOF” (Dow AgroSciences LLC, priority 2017, published 2023)

These molecules were tested on test plant species (assay: Post-emergent herbicidal activity test (greenhouse, foliar spray, visual growth reduction)). Settings: post-emergence, 336 h, ALOMY: blackgrass (Alopecurus myosuroides), 140 g ai/ha, 14 days after application, read-out: Visual Growth Reduction (%) 14 Days After Application, ALOMY.
Format: in vivo
How it was run: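 Visual percent injury (0-100) rated 14 d after treatment, relative to nontreated and solvent-blank plants. Test plants at first or second true leaf stage received an overhead track-sprayer application at 187 L/ha. Compounds were formulated in aqueous acetone/DMSO carrier containing crop oil concentrate and X-77 surfactant.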
With `COC(=O)c1nc(-c2cc(C)c(Cl)cc2Cl)ccc1Cl` [F51, Methyl 3-chloro-6-(2,4-dichloro-5-methylphenyl) picolinate] the pest or weed control at 140 g/ha was 0 to 29%.
In the case of `O=C(O)c1nc(-c2ccc(SC(F)(F)F)cc2)ccc1Cl` [F94, 3-Chloro-6-(4-((trifluoromethyl)thio)phenyl)picolinic acid], the pest or weed control at 140 g/ha is reported as 0 to 29%.

Same assay, conditions: post-emergence, 336 h, AMARE: redroot pigweed (Amaranthus retroflexus), 140 g ai/ha, 14 days after application, read-out: Visual Growth Reduction (%) 14 Days After Application, AMARE
Molecule `COC(=O)c1nc(-c2cc(C)c(Cl)cc2Cl)ccc1Cl` [F51, Methyl 3-chloro-6-(2,4-dichloro-5-methylphenyl) picolinate] has a pest or weed control at 140 g/ha of 45 to 59%.
`O=C(O)c1nc(-c2ccc(SC(F)(F)F)cc2)ccc1Cl` [F94, 3-Chloro-6-(4-((trifluoromethyl)thio)phenyl)picolinic acid] showed a pest or weed control at 140 g/ha of 0 to 29%.

Same assay, conditions: post-emergence, 336 h, AVEFA: wild oat (Avena fatua), 140 g ai/ha, 14 days after application, read-out: Visual Growth Reduction (%) 14 Days After Application, AVEFA
`COC(=O)c1nc(-c2cc(C)c(Cl)cc2Cl)ccc1Cl` [F51, Methyl 3-chloro-6-(2,4-dichloro-5-methylphenyl) picolinate] showed a pest or weed control at 140 g/ha of 0 to 29%.
Molecule `O=C(O)c1nc(-c2ccc(SC(F)(F)F)cc2)ccc1Cl` [F94, 3-Chloro-6-(4-((trifluoromethyl)thio)phenyl)picolinic acid] has a pest or weed control at 140 g/ha of 0 to 29%.

Same assay, conditions: post-emergence, 336 h, CHEAL: lambsquarters (Chenopodium album), 140 g ai/ha, 14 days after application, read-out: Visual Growth Reduction (%) 14 Days After Application, CHEAL
`COC(=O)c1nc(-c2cc(C)c(Cl)cc2Cl)ccc1Cl` [F51, Methyl 3-chloro-6-(2,4-dichloro-5-methylphenyl) picolinate] showed a pest or weed control at 140 g/ha of 45 to 59%.
Work on `O=C(O)c1nc(-c2ccc(SC(F)(F)F)cc2)ccc1Cl` [F94, 3-Chloro-6-(4-((trifluoromethyl)thio)phenyl)picolinic acid] yielded a pest or weed control at 140 g/ha of 0 to 29%.

Same assay, conditions: post-emergence, 336 h, CIRAR: canada thistle (Cirsium arvense), 140 g ai/ha, 14 days after application, read-out: Visual Growth Reduction (%) 14 Days After Application, CIRAR
With `COC(=O)c1nc(-c2cc(C)c(Cl)cc2Cl)ccc1Cl` [F51, Methyl 3-chloro-6-(2,4-dichloro-5-methylphenyl) picolinate] the pest or weed control at 140 g/ha was 0 to 29%.
With `O=C(O)c1nc(-c2ccc(SC(F)(F)F)cc2)ccc1Cl` [F94, 3-Chloro-6-(4-((trifluoromethyl)thio)phenyl)picolinic acid] the pest or weed control at 140 g/ha was 30 to 44%.

Same assay, conditions: post-emergence, 336 h, CYPES: yellow nutsedge (Cyperus esculentus), 140 g ai/ha, 14 days after application, read-out: Visual Growth Reduction (%) 14 Days After Application, CYPES
With `COC(=O)c1nc(-c2cc(C)c(Cl)cc2Cl)ccc1Cl` [F51, Methyl 3-chloro-6-(2,4-dichloro-5-methylphenyl) picolinate] the pest or weed control at 140 g/ha was 0 to 29%.
`O=C(O)c1nc(-c2ccc(SC(F)(F)F)cc2)ccc1Cl` [F94, 3-Chloro-6-(4-((trifluoromethyl)thio)phenyl)picolinic acid] was tested, and the pest or weed control at 140 g/ha was 0 to 29%.

Same assay, conditions: post-emergence, 336 h, DIGSA: crabgrass (Digitaria sanguinalis), 140 g ai/ha, 14 days after application, read-out: Visual Growth Reduction (%) 14 Days After Application, DIGSA
With `COC(=O)c1nc(-c2cc(C)c(Cl)cc2Cl)ccc1Cl` [F51, Methyl 3-chloro-6-(2,4-dichloro-5-methylphenyl) picolinate] the pest or weed control at 140 g/ha was 0 to 29%.
For `O=C(O)c1nc(-c2ccc(SC(F)(F)F)cc2)ccc1Cl` [F94, 3-Chloro-6-(4-((trifluoromethyl)thio)phenyl)picolinic acid], the pest or weed control at 140 g/ha was 0 to 29%.

Same assay, conditions: post-emergence, 336 h, ECHCG: barnyardgrass (Echinochloa crus-galli), 140 g ai/ha, 14 days after application, read-out: Visual Growth Reduction (%) 14 Days After Application, ECHCG
For `COC(=O)c1nc(-c2cc(C)c(Cl)cc2Cl)ccc1Cl` [F51, Methyl 3-chloro-6-(2,4-dichloro-5-methylphenyl) picolinate], the pest or weed control at 140 g/ha was 0 to 29%.
`O=C(O)c1nc(-c2ccc(SC(F)(F)F)cc2)ccc1Cl` [F94, 3-Chloro-6-(4-((trifluoromethyl)thio)phenyl)picolinic acid] showed a pest or weed control at 140 g/ha of 0 to 29%.

Same assay, conditions: post-emergence, 336 h, IPOHE: ivy-leaf morning glory (Ipomoea hederacea), 140 g ai/ha, 14 days after application, read-out: Visual Growth Reduction (%) 14 Days After Application, IPOHE
`O=C(O)c1nc(-c2ccc(SC(F)(F)F)cc2)ccc1Cl` [F94, 3-Chloro-6-(4-((trifluoromethyl)thio)phenyl)picolinic acid] was tested, and the pest or weed control at 140 g/ha was 60 to 74%.

Same assay, conditions: post-emergence, 336 h, KCHSC: kochia (Bassia scoparia), 140 g ai/ha, 14 days after application, read-out: Visual Growth Reduction (%) 14 Days After Application, KCHSC
`COC(=O)c1nc(-c2cc(C)c(Cl)cc2Cl)ccc1Cl` [F51, Methyl 3-chloro-6-(2,4-dichloro-5-methylphenyl) picolinate] was tested, and the pest or weed control at 140 g/ha was 0 to 29%.
`O=C(O)c1nc(-c2ccc(SC(F)(F)F)cc2)ccc1Cl` [F94, 3-Chloro-6-(4-((trifluoromethyl)thio)phenyl)picolinic acid] gave a pest or weed control at 140 g/ha of 0 to 29%.

Same assay, conditions: post-emergence, 336 h, ORYSA: rice (Oryza sativa), 140 g ai/ha, 14 days after application, read-out: Visual Growth Reduction (%) 14 Days After Application, ORYSA
Work on `COC(=O)c1nc(-c2cc(C)c(Cl)cc2Cl)ccc1Cl` [F51, Methyl 3-chloro-6-(2,4-dichloro-5-methylphenyl) picolinate] yielded a pest or weed control at 140 g/ha of 0 to 29%.
`O=C(O)c1nc(-c2ccc(SC(F)(F)F)cc2)ccc1Cl` [F94, 3-Chloro-6-(4-((trifluoromethyl)thio)phenyl)picolinic acid] showed a pest or weed control at 140 g/ha of 0 to 29%.

Same assay, conditions: post-emergence, 336 h, SETFA: giant foxtail (Setaria faberi), 140 g ai/ha, 14 days after application, read-out: Visual Growth Reduction (%) 14 Days After Application, SETFA
`COC(=O)c1nc(-c2cc(C)c(Cl)cc2Cl)ccc1Cl` [F51, Methyl 3-chloro-6-(2,4-dichloro-5-methylphenyl) picolinate] gave a pest or weed control at 140 g/ha of 0 to 29%.
Work on `O=C(O)c1nc(-c2ccc(SC(F)(F)F)cc2)ccc1Cl` [F94, 3-Chloro-6-(4-((trifluoromethyl)thio)phenyl)picolinic acid] yielded a pest or weed control at 140 g/ha of 0 to 29%.

Same assay, conditions: post-emergence, 336 h, SORVU: grain sorghum (Sorghum vulgare), 140 g ai/ha, 14 days after application, read-out: Visual Growth Reduction (%) 14 Days After Application, SORVU
`COC(=O)c1nc(-c2cc(C)c(Cl)cc2Cl)ccc1Cl` [F51, Methyl 3-chloro-6-(2,4-dichloro-5-methylphenyl) picolinate] showed a pest or weed control at 140 g/ha of 0 to 29%.
`O=C(O)c1nc(-c2ccc(SC(F)(F)F)cc2)ccc1Cl` [F94, 3-Chloro-6-(4-((trifluoromethyl)thio)phenyl)picolinic acid] gave a pest or weed control at 140 g/ha of 0 to 29%.

Same assay, conditions: post-emergence, 336 h, STEME: common chickweed (Stellaria media), 140 g ai/ha, 14 days after application, read-out: Visual Growth Reduction (%) 14 Days After Application, STEME
In the case of `COC(=O)c1nc(-c2cc(C)c(Cl)cc2Cl)ccc1Cl` [F51, Methyl 3-chloro-6-(2,4-dichloro-5-methylphenyl) picolinate], the pest or weed control at 140 g/ha is reported as 0 to 29%.
`O=C(O)c1nc(-c2ccc(SC(F)(F)F)cc2)ccc1Cl` [F94, 3-Chloro-6-(4-((trifluoromethyl)thio)phenyl)picolinic acid] showed a pest or weed control at 140 g/ha of 0 to 29%.

Same assay, conditions: post-emergence, 336 h, TRZAS: wheat, spring (Triticum aestivum), 140 g ai/ha, 14 days after application, read-out: Visual Growth Reduction (%) 14 Days After Application, TRZAS
`COC(=O)c1nc(-c2cc(C)c(Cl)cc2Cl)ccc1Cl` [F51, Methyl 3-chloro-6-(2,4-dichloro-5-methylphenyl) picolinate] showed a pest or weed control at 140 g/ha of 0 to 29%.
Molecule `O=C(O)c1nc(-c2ccc(SC(F)(F)F)cc2)ccc1Cl` [F94, 3-Chloro-6-(4-((trifluoromethyl)thio)phenyl)picolinic acid] has a pest or weed control at 140 g/ha of 0 to 29%.
